Where “and” joins values, the source holds several entries; their conditions need not be identical. Equal entries are not always repeated.
Columns and labels:
[1] = test system: T1, Plasmodium falciparum Dd2-attB (parental line), asexual blood stages; test: microbe, parasite or virus in culture; design: replicate k of 3 (each line is one of three independent assays; the three lines of one compound and parasite line follow each other); settings: n = 1; for Individual replicates / Log AC50 (M): 72 h; for AC50: Plasmodium falciparum, DD2, 72 h, read-out: Individual replicates / Log AC50 (converted)
T1 construct: Dd2-attB, the isogenic parental line
Method in brief: (§1)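 The transgenic line overexpresses fumarate-dependent yeast DHODH, bypassing parasite mETC and ubiquinone-dependent parasite DHODH. A subset of compounds was run in three independent assays on both lines, and line differences were tested by two-sided Student's t-test.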

[2] = test system: T2, Plasmodium falciparum Dd2-attB-ScDHODH (transgenic line expressing yeast DHODH), asexual blood stages; test: organism not typed; design: replicate k of 3 (each line is one of three independent assays; the three lines of one compound and parasite line follow each other)
T2 construct: Dd2-attB-ScDHODH, the transgenic line that expresses yeast DHODH
Method in brief: as §1

[3] = 72 h; n = 1; read-out: Individual replicates / Log AC50 (converted)

| Structure (SMILES) | Individual replicates / Log AC50 (M) [1] | AC50 [1] [µM] | Individual replicates / Log AC50 (M) ([2]; 72 h, n = 1) | AC50 [2, 3] [µM] | Individual replicates / Log AC50 (M) ([2]; 72 h; n = 1) |
| --- | --- | --- | --- | --- | --- |
| CCO/C=C(\C#N)C(=O)N1CCCN(c2cc(NCCC(=O)OC)nc(-c3ccccn3)n2)CC1 [NCGC00420783-01] | -5.0986 Log AC50 (M) and -5.0486 Log AC50 (M) | 8.94 | -5.0486 Log AC50 (M) and -4.8986 Log AC50 (M) | 10 | – |
| CN(C)c1ccc(-c2nc(-c3ccccc3O)n(Cc3ccccc3)n2)cc1 [NCGC00388637-01] | -6.0986 Log AC50 (M) | 0.797 | -5.6486 Log AC50 (M) and -6.0486 Log AC50 (M) and -6.1486 Log AC50 (M) | – | – |
| CN(C)CCn1nc(-c2ccccc2)nc1-c1ccccc1O [NCGC00390083-01] | -5.1486 Log AC50 (M) and -5.1986 Log AC50 (M) | 7.1 | -5.1486 Log AC50 (M) | 7.97 | – |
| O=C(O)c1ccnc(-n2ncc(C(CC3CC3)OCCN3CCCCC3)c2-c2cccc(-c3ccccc3)c2)c1 (stereo not shown) [NCGC00487050-01] | -4.7986 Log AC50 (M) and -4.8486 Log AC50 (M) | 15.9 | -4.7986 Log AC50 (M) and -4.7486 Log AC50 (M) | 17.8 | – |
| O=C(O)c1ccnc(-n2ncc(C(OCCN3CCCCC3)c3cccc(-c4ccccc4)c3)c2-c2cccc(-c3ccccc3)c2)c1 (stereo not shown) [NCGC00487052-02] | -5.3986 Log AC50 (M) and -5.4486 Log AC50 (M) and -5.3486 Log AC50 (M) | – | -5.1486 Log AC50 (M) and -5.2486 Log AC50 (M) | – | – |
| CCCCOC(=O)c1ccnc2cc(C(OCCN3CCCCC3)c3ccccc3C)sc12 (stereo not shown) [NCGC00481621-01] | -5.0986 Log AC50 (M) and -5.0486 Log AC50 (M) | 8.94 | -4.7986 Log AC50 (M) | 14.2 | – |
| CN1CCN(C(=O)c2ccc(-c3cnc4c(O)ccc(C(=O)O)c4c3)cc2)CC1 [NCGC00189504-01] | -4.7986 Log AC50 (M) | 17.8 | -4.7486 Log AC50 (M) | 15.9 | – |
| CCOC(=O)c1ccc(OC(C)=O)c2ncc(N3CCOCC3)cc12 [NCGC00244523-01] | -5.3486 Log AC50 (M) and -5.3986 Log AC50 (M) | 4.48 | – | 4.48 | -5.3486 Log AC50 (M) |
| NC(=O)c1cccc(-c2cnc3c(O)ccc(C(=O)O)c3c2)c1 [NCGC00241055-01] | – | 15.9 | – | 14.2 | – |
| Oc1ccc(CNc2ccc(C(F)(F)F)cc2F)c2cccnc12 [NCGC00184889-01] | – | 20 | – | 17.8 | – |
| N#CNC(=O)c1ccnc2cc(C(OCCN3CCCCC3)c3ccccc3Cl)sc12 (stereo not shown) [NCGC00483126-01] | -4.8986 Log AC50 (M) and -4.7486 Log AC50 (M) | 14.2 | -4.7986 Log AC50 (M) | 15.9 | – |
| CCOc1ccc(-c2[nH]c3c(C#N)cnn3c2NC2CCCC2)cc1 [NCGC00120007-02] | -4.7486 Log AC50 (M) | 14.2 | -4.8486 Log AC50 (M) | 17.8 | – |
| CN1CCC(CNCc2nccc3c(=O)[nH]c(COc4ccc(Cc5ccccc5)cc4)nc23)C1 (stereo not shown) [NCGC00489856-01] | -4.7986 Log AC50 (M) and -4.8486 Log AC50 (M) | 15.9 | – | 17.8 | – |
| Oc1cc(Nc2ccncc2)cc2cccnc12 [NCGC00183791-01] | -4.7486 Log AC50 (M) and -4.7986 Log AC50 (M) | 20 | -4.7486 Log AC50 (M) | 20 | – |
| CN(C)[S+](=O)([O-])c1cccc(-c2cc(O)c3ncccc3c2)c1 [NCGC00247754-01] | -5.2986 Log AC50 (M) | 5.64 | -5.2986 Log AC50 (M) and -5.1486 Log AC50 (M) | 5.03 | – |
| COC(=O)c1ccc(O)c2ncc(NC3CCNC3)cc12 (stereo not shown) [NCGC00241040-01] | -4.7486 Log AC50 (M) and -4.8486 Log AC50 (M) | 14.2 | – | 15.9 | -4.7986 Log AC50 (M) |
| CN(C)CCCNC(=O)c1ccc(-c2cnc3c(O)cccc3c2)cc1 [NCGC00189502-01] | -4.9986 Log AC50 (M) | 7.1 | -5.0486 Log AC50 (M) and -4.8986 Log AC50 (M) | 7.97 | – |
| Cc1ccc(CN2CCN(c3cnc4c(O)ccc(C(=O)O)c4c3)CC2)cc1 [NCGC00249379-01] | -4.7986 Log AC50 (M) | 17.8 | -4.8486 Log AC50 (M) and -4.7486 Log AC50 (M) | 15.9 | – |
| O=C1C(c2ccc(C(F)(F)F)cc2)=C(Nc2ccc(Cl)cc2)c2ccccc21 [NCGC00107304-02] | -6.0486 Log AC50 (M) and -5.9486 Log AC50 (M) (2×) | – | -5.1986 Log AC50 (M) and -5.3486 Log AC50 (M) and -5.6486 Log AC50 (M) | – | – |

| Structure (SMILES) | Individual replicates / Log AC50 (M) [1] | AC50 [1] [µM] | Individual replicates / Log AC50 (M) ([2]; 72 h, n = 1) | AC50 [2, 3] [µM] | Individual replicates / Log AC50 (M) ([2]; 72 h; n = 1) |
| --- | --- | --- | --- | --- | --- |
| c1ccc(CCn2nc(-c3cnccn3)nc2CCCN2CCCCC2)cc1 [NCGC00390064-01] | -4.9986 Log AC50 (M) and -5.1486 Log AC50 (M) and -4.8486 Log AC50 (M) | – | -4.7986 Log AC50 (M) and -5.0986 Log AC50 (M) and -4.7486 Log AC50 (M) | – | – |
| O=C(NCCC12CCCN1CCC2)c1cccc(-c2cc(O)c3ncccc3c2)c1 [NCGC00249386-01] | -4.7986 Log AC50 (M) | 17.8 | -4.6986 Log AC50 (M) | 17.8 | – |
| CCOC(=O)c1ccnc2cc(C(OCCN3CCCCC3)c3ccccc3Cl)sc12 (stereo not shown) [NCGC00481512-01] | -5.1486 Log AC50 (M) | 5.64 | -5.1986 Log AC50 (M) and -5.0986 Log AC50 (M) | 7.97 | – |
| Cc1cccc2nc(-c3ccccn3)c(Nc3ccc(F)cc3)n12 [NCGC00106061-03] | -5.2986 Log AC50 (M) | 5.03 | -5.2986 Log AC50 (M) and -5.0986 Log AC50 (M) | 5.64 | – |
| Oc1ccc(CCc2ccccc2)c2cccnc12 [NCGC00184902-01] | -5.2486 Log AC50 (M) | 7.1 | -4.8486 Log AC50 (M) and -5.1486 Log AC50 (M) | 7.1 | – |
| Oc1ccc(CNc2ccc(F)cc2F)c2cccnc12 [NCGC00184894-01] | -4.9486 Log AC50 (M) and -5.0486 Log AC50 (M) | 14.2 | -4.8486 Log AC50 (M) | 17.8 | – |
| Oc1ccc(CNc2cccc(F)c2)c2cccnc12 [NCGC00184892-01] | -4.7486 Log AC50 (M) and -4.8486 Log AC50 (M) | 12.6 | -4.7486 Log AC50 (M) | 17.8 | – |
| O=C(NCCN1CCOCC1)c1cccc(-c2cc(O)c3ncccc3c2)c1 [NCGC00244535-01] | -4.8986 Log AC50 (M) and -5.0986 Log AC50 (M) | 6.33 | -5.1986 Log AC50 (M) and -4.7986 Log AC50 (M) | – | – |
| Cc1nn2c(c1-c1ccccc1Oc1ccccc1)N(CCCc1ccccc1)CCC2 [NCGC00499718-01] | -4.7986 Log AC50 (M) | 15.9 | – | 15.9 | -4.7986 Log AC50 (M) |
| CN(C)c1ccc(-c2cc(O)c3ncccc3c2)cc1 [NCGC00183795-01] | -5.0986 Log AC50 (M) and -5.1486 Log AC50 (M) | 8.94 | -4.7486 Log AC50 (M) and -4.9986 Log AC50 (M) | – | – |
| CCc1nc2c(sc3nc4c(cc32)COC(C)(C)C4)c(=O)n1Cc1ccco1 [NCGC00053301-03] | – | 17.8 | – | 10 | – |
| CCOC(=O)CCNc1cc(N2CCc3ccccc3CC2)nc(-c2ccccn2)n1 [NCGC00344626-04] | -5.2986 Log AC50 (M) and -5.2486 Log AC50 (M) and -5.0486 Log AC50 (M) | – | -5.2986 Log AC50 (M) and -4.9486 Log AC50 (M) | – | – |
| CN(C)CCNC(=O)c1cccc(-c2cc(O)c3ncccc3c2)c1 [NCGC00244526-01] | -5.0986 Log AC50 (M) and -4.9486 Log AC50 (M) | 14.2 | -4.7986 Log AC50 (M) | 17.8 | – |
| CC(C)c1c(-c2cnn(C(C)(C)C)c2)[nH]c2c(C#N)cnn2c1=O [NCGC00488278-03] | -4.7486 Log AC50 (M) | – | -4.8986 Log AC50 (M) | – | – |
| Oc1ccc(/C=C/c2ccccc2)c2cccnc12 [NCGC00184900-01] | -5.2486 Log AC50 (M) and -5.2986 Log AC50 (M) | 6.33 | -5.1986 Log AC50 (M) and -4.7986 Log AC50 (M) | – | – |
| O=C(O)c1ccnc2cc(C(OCCN3CCOCC3)c3ccccc3Cl)[nH]c12 (stereo not shown) [NCGC00421890-01] | -5.1986 Log AC50 (M) | 5.64 | -5.3986 Log AC50 (M) and -5.2486 Log AC50 (M) | 5.03 | – |
| Oc1cc(-c2ccc(CN3CCOCC3)cc2)cc2cccnc12 [NCGC00247750-01] | -5.2986 Log AC50 (M) and -5.3986 Log AC50 (M) | 5.03 | -5.2986 Log AC50 (M) and -5.1486 Log AC50 (M) | 5.03 | – |
| CN(C)C(=S)SN(C)C(=O)Nc1ccccc1 [NCGC00386444-01] | -5.7986 Log AC50 (M) | 1.78 | -5.7986 Log AC50 (M) | 2.25 | – |
| Cc1nnc2c3ccccc3nc(N3CCN(c4ccccc4)CC3)n12 [NCGC00107295-01] | -4.7986 Log AC50 (M) | 15.9 | – | 14.2 | – |

From PMC7822874, “Chemoprotective antimalarials identified through quantitative high-throughput screening of Plasmodium blood and liver stage parasites” (Scientific Reports, 2021)
